Measured values as given in patent publication US11225491B2, “Thiazolo-pyrimidine HIV-1 reverse transcriptase inhibitor, preparation method therefor, and uses thereof” (priority 2018, dated 2022).
Like-named read-outs stand apart in the source and are kept apart here.

Tests used:
[1] = in vitro; conditions: human
[2] = test system: mutant HIV-1 strain Y181C; test: microbe, parasite or virus in culture; type: cell-based; conditions: Human immunodeficiency virus 1, MT4, read-out: EC50 Y181C
[3] = test system: HIV-1 K103N+Y181C (RES056); test: microbe, parasite or virus in culture; type: cell-based; conditions: for EC50: Human immunodeficiency virus 1, MT4, read-out: EC50 RES056; for SI RES056: selectivity index, ratio of CC50/EC50, strain RES056
[4] = test system: mutant HIV-1 strain E138K; test: microbe, parasite or virus in culture; type: cell-based; conditions: Human immunodeficiency virus 1, MT4, read-out: EC50 E138K
[5] = test system: mutant HIV-1 strain Y188L; test: microbe, parasite or virus in culture; type: cell-based; conditions: Human immunodeficiency virus 1, MT4, read-out: EC50 Y188L
[6] = test system: mutant HIV-1 strain F227L + V106A; test: microbe, parasite or virus in culture; type: cell-based; conditions: Human immunodeficiency virus 1, MT4, read-out: EC50 F227L + V106A
[7] = test system: mutant HIV-1 strain L100I; test: microbe, parasite or virus in culture; type: cell-based; conditions: Human immunodeficiency virus 1, MT4, read-out: EC50 L100I
[8] = test system: WT HIV-1 strain (IIIB); test: Anti-HIV activity in MT-4 cells, MTT method, WT strain IIIB; type: cell-based; conditions: for SI IIIB: selectivity index, ratio of CC50/EC50, strain IIIB
[9] = Cytotoxicity in mock-infected MT-4 cells, MTT method; conditions: human
[10] = test system: mutant HIV-1 strain K103N; test: microbe, parasite or virus in culture; type: cell-based; conditions: Human immunodeficiency virus 1, MT4, read-out: EC50 K103N
[11] = Human immunodeficiency virus 1, MT4, 50% protection of MT-4 cell cultures against HIV-1-induced cytopathic effect, MTT method, strain IIIB, read-out: EC50 IIIB

SMILES: Cc1cc(C#N)cc(C)c1Oc1nc(Nc2ccc(C#N)cc2)nc(N)c1Br [ETR, Etravirine, reference compound]
- CC50 at 5 days [1]: > 4590 nM
- EC50 [2]: 14.5 ± 8.2 nM
- EC50 [3]: 45.4 ± 15.5 nM
- EC50 [4]: 9.7 ± 6.9 nM
- EC50 [5]: 20.4 ± 8.6 nM
- EC50 [6]: 19.7 ± 7.3 nM
- EC50 [7]: 6 ± 1.5 nM
- EC50 [8, 11]: 5.1 ± 0.8 nM

SMILES: Cc1ccnc2c1NC(=O)c1cccnc1N2C1CC1 [NVP, Nevirapine, reference compound]
- CC50 at 5 days [9]: > 9510 nM
- EC50 [3]: > 9510 nM
- EC50 ([8]; Human immunodeficiency virus 1, IIIB, MT4, read-out: EC50 IIIB): 163 ± 41.2 nM

SMILES: Cc1cc(C#N)cc(C)c1Oc1nc(NC2CCN(Cc3ccc(S(N)(=O)=O)cc3)CC2)nc2ncsc12 [SZ1]
- EC50 [10]: 3.9 ± 1.9 nM
- CC50 at 5 days [1]: 25100 ± 749 nM
- EC50 [2]: 6.7 ± 1.2 nM
- EC50 [3]: 26.1 ± 1.5 nM
- SI RES056 [3]: 961
- EC50 [4]: 6.5 ± 1.5 nM
- EC50 [5]: 11.4 ± 2.3 nM
- EC50 [6]: 18.8 ± 4.5 nM
- EC50 [7]: 7.8 ± 0.2 nM
- EC50 [8, 11]: 2.2 ± 0.9 nM
- SI IIIB [8]: 11071

SMILES: CNS(=O)(=O)c1ccc(CN2CCC(Nc3nc(Oc4c(C)cc(C#N)cc4C)c4scnc4n3)CC2)cc1 [SZ2]
- EC50 [10]: 5.1 ± 1 nM
- CC50 at 5 days [1]: 13700 ± 3470 nM
- EC50 [2]: 7.3 ± 0.1 nM
- EC50 [3]: 19.4 ± 13.1 nM
- SI RES056 [3]: 710
- EC50 [4]: 9.2 ± 0.7 nM
- EC50 [5]: 14 ± 2 nM
- EC50 [6]: 22.6 ± 3.8 nM
- EC50 [7]: 8.7 ± 0.3 nM
- EC50 [8, 11]: 4.8 ± 0.1 nM
- SI IIIB [8]: 2828

SMILES: Cc1cc(C#N)cc(C)c1Oc1nc(NC2CCN(Cc3ccc(S(=O)(=O)NC4CC4)cc3)CC2)nc2ncsc12 [SZ3]
- CC50 at 5 days [1]: 23200 ± 4520 nM
- EC50 [3]: 41.3 ± 5.2 nM
- SI RES056 [3]: 561
- EC50 [8, 11]: 5 ± 0.2 nM
- SI IIIB [8]: 4564

SMILES: Cc1cc(C#N)cc(C)c1Oc1nc(NC2CCN(Cc3ccc(S(=O)(=O)N4CCOCC4)cc3)CC2)nc2ncsc12 [SZ4]
- CC50 at 5 days [1]: 17600 ± 2370 nM
- EC50 [3]: 94.4 ± 0.5 nM
- SI RES056 [3]: 187
- EC50 [8, 11]: 3.7 ± 0.8 nM
- SI IIIB [8]: 4665

SMILES: Cc1cc(C#N)cc(C)c1Oc1nc(NC2CCN(Cc3ccc(C(N)=O)cc3)CC2)nc2ncsc12 [SZ5]
- CC50 at 5 days [1]: 15500 ± 2840 nM
- EC50 [3]: > 15600 nM
- SI RES056 [3]: <1
- EC50 [8, 11]: > 15600 nM
- SI IIIB [8]: <1

SMILES: Cc1cc(C#N)cc(C)c1Oc1nc(NC2CCN(Cc3ccc(S(C)(=O)=O)cc3)CC2)nc2ncsc12 [SZ6, 3,5-dimethyl-4-((5-((1-(4-(methylsulfonyl)benzyl)piperidin-4-yl)amino)thiazolo[4,5-d]pyrimidin-7-yl)oxy)benzonitrile]
- EC50 [10]: 3.8 ± 2.8 nM
- CC50 at 5 days [1]: 10900 ± 2750 nM
- EC50 [2]: 7 ± 0.9 nM
- EC50 [3]: 27.4 ± 0.3 nM
- SI RES056 [3]: 400
- EC50 [4]: 6.1 ± 1.1 nM
- EC50 [5]: 10.7 nM
- EC50 [6]: 15.4 ± 2.3 nM
- EC50 [7]: 3.2 ± 0.7 nM
- EC50 [8, 11]: 2.2 ± 0.6 nM
- SI IIIB [8]: 4816

SMILES: Cc1cc(C#N)cc(C)c1Oc1nc(NC2CCN(Cc3ccncc3)CC2)nc2ncsc12 [SZ7, 3,5-dimethyl-4-((5-((1-(pyridin-4-ylmethyl)piperidin-4-yl)amino)thiazolo[4,5-d]pyrimidin-7-yl)oxy)benzonitrile]
- EC50 [10]: 1.9 ± 0.6 nM
- CC50 at 5 days [1]: 30300 ± 760 nM
- EC50 [2]: 5.8 ± 2.2 nM
- EC50 [3]: 24.7 ± 1.9 nM
- SI RES056 [3]: 1227
- EC50 [4]: 5.5 ± 1.2 nM
- EC50 [5]: 7.7 ± 1 nM
- EC50 [6]: 32.9 ± 23.8 nM
- EC50 [7]: 5.6 ± 2.2 nM
- EC50 [8, 11]: 1.8 ± 0.4 nM
- SI IIIB [8]: 16818

SMILES: Cc1cc(C#N)cc(C)c1Oc1nc(NC2CCN(Cc3ccc([N+](=O)[O-])cc3)CC2)nc2ncsc12 [SZ8, 3,5-dimethyl-4-((5-((1-(4-nitrobenzyl)piperidin-4-yl)amino)thiazolo[4,5-d]pyrimidin-7-yl)oxy)benzonitrile]
- CC50 at 5 days [1]: 5170 ± 134 nM
- EC50 [3]: 129 ± 4.5 nM
- SI RES056 [3]: 40
- EC50 [8, 11]: 3.4 ± 0.2 nM
- SI IIIB [8]: 1482

SMILES: Cc1cc(C#N)cc(C)c1Oc1nc(NC2CCN(Cc3cccc(C(N)=O)c3)CC2)nc2ncsc12 [SZ9]
- CC50 at 5 days [1]: 27300 ± 965 nM
- EC50 [3]: 559 ± 8.5 nM
- SI RES056 [3]: 49
- EC50 [8, 11]: 1.3 nM
- SI IIIB [8]: 20099

SMILES: Cc1cc(C#N)cc(C)c1Oc1nc(NC2CCN(Cc3ccc(S(N)(=O)=O)cc3)CC2)nc2scnc12 [TZ1]
- EC50 [10]: 1.9 ± 0.1 nM
- CC50 at 5 days [1]: 23200 ± 1750 nM
- EC50 [2]: 6.5 ± 1 nM
- EC50 [3]: 18.3 ± 2.3 nM
- SI RES056 [3]: 1265
- EC50 [4]: 7.9 ± 0.1 nM
- EC50 [5]: 10.8 ± 0.6 nM
- EC50 [6]: 16 ± 4.6 nM
- EC50 [7]: 9.6 ± 1.5 nM
- EC50 [8, 11]: 1.6 ± 0.2 nM
- SI IIIB [8]: 14194

SMILES: Cc1cc(C#N)cc(C)c1Oc1nc(NC2CCN(Cc3ccc(C(N)=O)cc3)CC2)nc2scnc12 [TZ2]
- EC50 [10]: 1.6 ± 0.4 nM
- CC50 at 5 days [1]: 27100 ± 1300 nM
- EC50 [2]: 5.1 ± 0.1 nM
- EC50 [3]: 28.1 ± 13 nM
- SI RES056 [3]: 965
- EC50 [4]: 5.2 ± 0.8 nM
- EC50 [5]: 7.2 ± 0.2 nM
- EC50 [6]: 20.3 ± 2.6 nM
- EC50 [7]: 6.3 ± 2.8 nM
- EC50 [8, 11]: 1.6 ± 0.1 nM
- SI IIIB [8]: 16412

SMILES: Cc1cc(C#N)cc(C)c1Oc1nc(NC2CCN(Cc3ccc(S(C)(=O)=O)cc3)CC2)nc2scnc12 [TZ3, 3,5-dimethyl-4-((5-((1-(4-(methylsulfonyl)benzyl)piperidin-4-yl)amino)thiazolo[5,4-d]pyrimidin-7-yl)oxy)benzonitrile]
- EC50 [10]: 3.3 ± 0.3 nM
- CC50 at 5 days [1]: 14300 ± 5500 nM
- EC50 [2]: 7.5 ± 0.6 nM
- EC50 [3]: 18.1 ± 1.1 nM
- SI RES056 [3]: 791
- EC50 [4]: 6.6 ± 0.1 nM
- EC50 [5]: 7.1 ± 0.2 nM
- EC50 [6]: 15.2 ± 3.4 nM
- EC50 [7]: 5.6 ± 0.7 nM
- EC50 [8, 11]: 2.3 ± 0.7 nM
- SI IIIB [8]: 6212

SMILES: Cc1cc(C#N)cc(C)c1Oc1nc(NC2CCN(Cc3ccncc3)CC2)nc2scnc12 [TZ4, 3,5-dimethyl-4-((5-((1-(pyridin-4-ylmethyl)piperidin-4-yl)amino)thiazolo[5,4-d]pyrimidin-7-yl)oxy)benzonitrile]
- EC50 [10]: 3.3 ± 2.3 nM
- CC50 at 5 days [1]: 28700 ± 489 nM
- EC50 [2]: 5.8 ± 0.1 nM
- EC50 [3]: 26.8 ± 0.1 nM
- SI RES056 [3]: 1074
- EC50 [4]: 6.5 ± 0.3 nM
- EC50 [5]: 6.6 ± 1 nM
- EC50 [6]: 30.9 ± 6.2 nM
- EC50 [7]: 13.7 ± 7.1 nM
- EC50 [8, 11]: 2.7 nM
- SI IIIB [8]: 10447

SMILES: Cc1cc(C#N)cc(C)c1Oc1nc(NC2CCN(Cc3ccc([N+](=O)[O-])cc3)CC2)nc2scnc12 [TZ5, 3,5-dimethyl-4-((5-((1-(4-nitrobenzyl)piperidin-4-yl)amino)thiazolo[5,4-d]pyrimidin-7-yl)oxy)benzonitrile]
- CC50 at 5 days [1]: 5680 ± 423 nM
- EC50 [3]: 126 ± 16 nM
- SI RES056 [3]: 45
- EC50 [8, 11]: 8.2 ± 1.9 nM
- SI IIIB [8]: 687

SMILES: Cc1cc(C#N)cc(C)c1Oc1nc(NC2CCN(Cc3cccc(C(N)=O)c3)CC2)nc2scnc12 [TZ6]
- CC50 at 5 days [1]: 28800 ± 634 nM
- EC50 [3]: 222 ± 47 nM
- SI RES056 [3]: 130
- EC50 [8, 11]: 3 ± 0.6 nM
- SI IIIB [8]: 9565
